Source: patent US11098032B2, “Pyran dervatives as CYP11A1 (cytochrome P450 monooxygenase 11A1) inhibitors” (ORION CORPORATION, priority 2016, dated 2021)

Molecular target: T1, CYP11A1 (Homo sapiens, UniProt P05108)
T1 construct: human H295R adrenocortical carcinoma cell line was used as source of enzyme; endogenous in cells; host or cells: H295R human adrenocortical carcinoma cells
T1 sequence (P05108 40-521): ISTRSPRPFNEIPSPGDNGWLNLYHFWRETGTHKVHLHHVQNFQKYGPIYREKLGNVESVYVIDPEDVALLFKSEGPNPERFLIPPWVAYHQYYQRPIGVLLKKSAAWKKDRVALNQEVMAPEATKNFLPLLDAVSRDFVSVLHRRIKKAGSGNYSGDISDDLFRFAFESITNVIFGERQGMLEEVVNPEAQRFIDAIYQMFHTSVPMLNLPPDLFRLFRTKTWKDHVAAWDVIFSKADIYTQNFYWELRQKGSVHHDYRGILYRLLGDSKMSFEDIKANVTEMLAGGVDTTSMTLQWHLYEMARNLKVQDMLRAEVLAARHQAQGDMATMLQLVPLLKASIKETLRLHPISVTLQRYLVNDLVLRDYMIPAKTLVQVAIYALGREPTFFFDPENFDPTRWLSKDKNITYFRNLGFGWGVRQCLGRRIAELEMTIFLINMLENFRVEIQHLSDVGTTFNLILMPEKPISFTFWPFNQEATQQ
Assay: CYP11A1 inhibition: modified isocaproic acid release assay (IARA) in H295R cells
Assay type: cell-based
Conditions: human H295R adrenocortical carcinoma cells treated three days, 3 nM [24,25-3H]-labelled cholesterol, 1% DMSO, 10 concentrations in duplicates; read-out: IC50 of the test compounds on CYP11A1 inhibition
Outline: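 H295R adrenocortical cells treated three days with test compounds at 10 concentrations in duplicate plus 3 nM [24,25-3H]-cholesterol, 1% DMSO final. Released radiolabelled isocaproic acid measured by scintillation counting after dextran-coated charcoal extraction; IC50 determined.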

| IC50 [nM] | Compound |
| --- | --- |
| 301 to 2000 | CCOC(=O)c1cnn(-c2ccc(COc3coc(CN4Cc5ccccc5C4)cc3=O)cc2)c1 [Compound 40, Ethyl 1-(4-(((6-(isoindolin-2-ylmethyl)-4-oxo-4H-pyran-3-yl)oxy)methyl)phenyl)-1H-pyrazole-4-carboxylate] |
| 150 to 300 | CC(C)S(=O)(=O)c1ccc(COc2coc(CN3Cc4ccccc4C3)cc2=O)cc1 [Compound 25, 2-(Isoindolin-2-ylmethyl)-5-((4-(isopropylsulfonyl)benzyl)oxy)-4H-pyran-4-one] |
| < 150 | Cc1ccc(S(=O)(=O)N=S(C)c2ccc(COc3coc(CN4Cc5ccccc5C4)cc3=O)cc2)cc1 (stereo not shown) [Compound 93, N-{[4-({[6-(1,3-dihydro-2H-isoindol-2-ylmethyl)-4-oxo-4H-pyran-3-yl]oxy}-methyl)phenyl](methyl)-λ^4-sulfanylidene}-4-methylbenzenesulfonamide] |
| 150 to 300 | CC(=O)N1CCC(COc2coc(CN3Cc4ccccc4C3)cc2=O)CC1 [Compound 252, 5-((1-Acetylpiperidin-4-yl)methoxy)-2-(isoindolin-2-ylmethyl)-4H-pyran-4-one] |
| 150 to 300 | CS(=O)(=O)c1ccc(COc2coc(CN3Cc4ccc([N+](=O)[O-])cc4C3)cc2=O)cc1 [Compound 68, 5-((4-(Methylsulfonyl)benzyl)oxy)-2-((5-nitroisoindolin-2-yl)methyl)-4H-pyran-4-one] |
| 150 to 300 | O=c1cc(CN2Cc3ccccc3C2)occ1OCC1CCOCC1 [Compound 67, 2-(Isoindolin-2-ylmethyl)-5-((tetrahydro-2H-pyran-4-yl)methoxy)-4H-pyran-4-one] |
| 150 to 300 | COCCS(=O)(=O)c1ccc(COc2coc(CN3Cc4ccccc4C3)cc2=O)cc1 [Compound 28, 2-(Isoindolin-2-ylmethyl)-5-((4-((2-methoxyethyl)sulfonyl)benzyl)oxy)-4H-pyran-4-one] |
| 301 to 2000 | N#Cc1ccc(COc2coc(CN3CCc4ccccc4C3)cc2=O)c(F)c1 [Compound 51, 4-(((6-((3,4-Dihydroisoquinolin-2(1H)-yl)methyl)-4-oxo-4H-pyran-3-yl)oxy)-methyl)-3-fluorobenzonitrile] |
| 301 to 2000 | CN(C)C(=O)c1ccc(COc2coc(CN3Cc4ccccc4C3)cc2=O)nc1 [Compound 170, 6-(((6-(Isoindolin-2-ylmethyl)-4-oxo-4H-pyran-3-yl)oxy)methyl)-N,N-dimethyl-nicotinamide] |
| < 150 | O=c1cc(CN2Cc3ccccc3C2)occ1OCC1CCC(CN2CCCS2(=O)=O)CC1 (stereo not shown) [Compound 176, 5-((4-((1,1-Dioxidoisothiazolidin-2-yl)methyl)cyclohexyl)methoxy)-2-(isoindolin-2-ylmethyl)-4H-pyran-4-one] |
| 150 to 300 | O=c1cc(CN2Cc3ccccc3C2)occ1OCC1CCN(S(=O)(=O)N2CCCC2)CC1 [Compound 267, 2-(Isoindolin-2-ylmethyl)-5-((1-(pyrrolidin-1-ylsulfonyl)piperidin-4-yl)methoxy)-4H-pyran-4-one] |
| < 150 | Cc1ccc2c(c1)CN(Cc1cc(=O)c(OCC3CCN(S(C)(=O)=O)CC3)co1)C2 [Compound 211, 2-((5-Methylisoindolin-2-yl)methyl)-5-((1-(methylsulfonyl)piperidin-4-yl)-methoxy)-4H-pyran-4-one] |
| 301 to 2000 | NC(=O)c1ccc(COc2coc(CN3CCc4ccccc4C3)cc2=O)cc1 [Compound 43, 4-(((6-((3,4-Dihydroisoquinolin-2(1H)-yl)methyl)-4-oxo-4H-pyran-3-yl)oxy)-methyl)benzamide] |
| 150 to 300 | O=c1cc(CN2Cc3ccccc3C2)occ1OCc1ccc(-n2cc(Br)cn2)cc1 [Compound 39, 5-((4-(4-Bromo-1H-pyrazol-1-yl)benzyl)oxy)-2-(isoindolin-2-ylmethyl)-4H-pyran-4-one] |
| 150 to 300 | O=C1NCc2cc(COc3coc(CN4Cc5ccccc5C4)cc3=O)ccc21 [Compound 180, 5-(((6-(Isoindolin-2-ylmethyl)-4-oxo-4H-pyran-3-yl)oxy)methyl)isoindolin-1-one] |
| 301 to 2000 | COCc1cccnc1N1CCN(C(=O)COc2coc(CN3Cc4ccccc4C3)cc2=O)CC1 [Compound 159, 2-(Isoindolin-2-ylmethyl)-5-(2-(4-(3-(methoxymethyl)pyridin-2-yl)piperazin-1-yl)-2-oxoethoxy)-4H-pyran-4-one] |

Continued, compound first:

| Compound | IC50 [nM] |
| --- | --- |
| O=C(COc1coc(CN2Cc3ccccc3C2)cc1=O)N1CCN(S(=O)(=O)c2ccccc2)CC1 [Compound 156, 2-(Isoindolin-2-ylmethyl)-5-(2-oxo-2-(4-(phenylsulfonyl)piperazin-1-yl)ethoxy)-4H-pyran-4-one] | 301 to 2000 |
| CS(=O)(=O)NCc1ccc(COc2coc(CN3Cc4ccccc4C3)cc2=O)cc1 [Compound 113, N-(4-(((6-(Isoindolin-2-ylmethyl)-4-oxo-4H-pyran-3-yl)oxy)methyl)benzyl)-methanesulfonamide] | < 150 |
| CNC(=O)C1CCC(COc2coc(CN3Cc4ccccc4C3)cc2=O)CC1 (stereo not shown) [Compound 227, 4-(((6-(Isoindolin-2-ylmethyl)-4-oxo-4H-pyran-3-yl)oxy)methyl)-N-methylcyclo-hexanecarboxamide] | 150 to 300 |
| CS(=O)(=O)N1CCC(COc2coc(CN3Cc4ccccc4C3)cc2=O)=C(F)C1 [Compound 104, 5-((5-Fluoro-1-(methylsulfonyl)-1,2,3,6-tetrahydropyridin-4-yl)methoxy)-2-(isoindolin-2-ylmethyl)-4H-pyran-4-one] | < 150 |
| O=c1cc(CN2Cc3ccc(F)cc3C2)occ1OCc1ccc(C2(O)COC2)cc1 [Compound 115, 2-((5-Fluoroisoindolin-2-yl)methyl)-5-((4-(3-hydroxyoxetan-3-yl)benzyl)oxy)-4H-pyran-4-one] | < 150 |
| CNC(=O)c1ccc(COc2coc(CN3Cc4ccccc4C3)cc2=O)cc1F [Compound 79, 2-Fluoro-4-(((6-(isoindolin-2-ylmethyl)-4-oxo-4H-pyran-3-yl)oxy)methyl)-N-methylbenzamide] | 301 to 2000 |
| CS(=O)(=O)N1CCC(COc2coc(C[N+]3([O-])Cc4ccc(C(F)(F)F)cc4C3)cc2=O)CC1 (stereo not shown) [Compound 290, 2-((5-((1-(Methylsulfonyl)piperidin-4-yl)methoxy)-4-oxo-4H-pyran-2-yl)methyl)-5-(trifluoromethyl)isoindoline 2-oxide] | 301 to 2000 |
| CCS(=N)(=O)c1ccc(COc2coc(CN3CCc4ccccc4C3)cc2=O)cc1 (stereo not shown) [Compound 166, 2-((3,4-Dihydroisoquinolin-2(1H)-yl)methyl)-5-((4-(ethylsulfonimidoyl)-benzyl)oxy)-4H-pyran-4-one] | 301 to 2000 |
| O=c1cc(CN2Cc3ccccc3C2)occ1OCc1ccc(S(=O)(=O)N2CCOCC2)cc1 [Compound 6, 2-(Isoindolin-2-ylmethyl)-5-((4-(morpholinosulfonyl)benzyl)oxy)-4H-pyran-4-one] | 150 to 300 |
| O=c1cc(CN2Cc3ccccc3C2)occ1OCc1ccc(S(=O)(=O)NCCO)cc1 [Compound 15, N-(2-Hydroxyethyl)-4-(((6-(isoindolin-2-ylmethyl)-4-oxo-4H-pyran-3-yl)-oxy)methyl)benzenesulfonamide] | < 150 |
| O=c1cc(CN2Cc3ccccc3C2)occ1OCc1ccc(-n2ccnn2)cc1 [Compound 107, 5-((4-(1H-1,2,3-triazol-1-yl)benzyl)oxy)-2-(isoindolin-2-ylmethyl)-4H-pyran-4-one] | 150 to 300 |
| CC(C)(C)C(=O)N1CCC(COc2coc(CN3Cc4ccccc4C3)cc2=O)CC1 [Compound 251, 2-(Isoindolin-2-ylmethyl)-5-((1-pivaloylpiperidin-4-yl)methoxy)-4H-pyran-4-one] | < 150 |
| CC(C)CS(=O)(=O)c1ccc(COc2coc(CN3Cc4ccccc4C3)cc2=O)cc1 [Compound 73, 5-((4-(Isobutylsulfonyl)benzyl)oxy)-2-(isoindolin-2-ylmethyl)-4H-pyran-4-one] | < 150 |
| O=c1cc(CN2Cc3ccccc3C2)occ1OC[C@H]1CC[C@H](N2CCCS2(=O)=O)CC1 [Compound 216, 5-(((1r,4r)-4-(1,1-Dioxidoisothiazolidin-2-yl)cyclohexyl)methoxy)-2-(isoindolin-2-ylmethyl)-4H-pyran-4-one] | < 150 |
| CS(=O)(=O)N1CCC(COc2coc(Cn3cc4ccc(C(F)(F)F)cc4c3)cc2=O)CC1 [Compound 287, 5-((1-(Methylsulfonyl)piperidin-4-yl)methoxy)-2-((5-(trifluoromethyl)-2H-isoindol-2-yl)methyl)-4H-pyran-4-one] | 301 to 2000 |
| O=c1cc(CN2Cc3ccccc3C2)occ1OCc1ccc(-n2cccn2)cc1 [Compound 108, 5-((4-(1H-Pyrazol-1-yl)benzyl)oxy)-2-(isoindolin-2-ylmethyl)-4H-pyran-4-one] | 150 to 300 |
| O=c1cc(CN2Cc3ccccc3C2)occ1OCc1ccc(-c2ccccn2)cc1 [Compound 165, 2-(Isoindolin-2-ylmethyl)-5-((4-(pyridin-2-yl)benzyl)oxy)-4H-pyran-4-one] | 150 to 300 |
| CC(C)(C)OC(=O)N1CCC(Oc2coc(CN3Cc4ccccc4C3)cc2=O)CC1 [Compound 203, tert-Butyl 4-((6-(isoindolin-2-ylmethyl)-4-oxo-4H-pyran-3-yl)oxy)piperidine-1-carboxylate] | 301 to 2000 |
